From patent publication US20170224653A1, “TLR-INDEPENDENT SMALL MOLECULE ADJUVANTS” (The Scripps Research Institute, priority 2014, published 2017)

Columns and labels:
[1] = Overt toxicity when used as an adjuvant at maximum doses; assay type: in vivo; conditions: maximum doses capable of administration, compared with LPS
[2] = test system: mouse macrophages; test: TNF-α production in macrophages from mice with germline mutations or knockouts of TLR and signaling genes; assay type: cell-based
Description: Induced TNF-α production was established with the use of macrophages from mice bearing germline genetic defects or knockouts of each of the genes encoding the TLRs or their downstream signaling molecules uniquely available in the laboratories of Professor Bruce Beutler, (University of Texas Southwestern Medical Center, Dallas, Tex.). See, (a) mutagenetix.utsouthwestern.edu.; (b) Arnold et al., (2012) ENU-induced phenovariance in mice: Inferences from 587 mutations. BMC Res. Notes. 5, 577-0500-5-577.

[3] = test system: THP-1 cells; test: TNF-α production upon compound treatment of THP-1 cells; assay type: cell-based; conditions: FIG. 2
[4] = test system: C57BL/6J mice; test: Adjuvant effect with ovalbumin, intramuscular immunization, serum OVA-specific IgG by ELISA; assay type: in vivo, mouse
Protocol: In FIG. 3, adjuvants were mixed with ovalbumin (OVA, 100 μg) and injected intramuscularly into C57BL/6J mice at the indicated doses. Two immunizations were administered with a booster given at 7 days.
FIG. 4 provides a series of graphs that show anti-olvalbumin titers at 14 days post immunization using adjuvants with ovalbumin (OVA, 100 μg) and injected intramuscularly into C57BL/6J mice. The adjuvants used were Compound 125-03, neoseptin-3 (below), LPS, MPLA (monophosphoryl lipid A from […]

[5] = target: T1, Cyld (Homo sapiens, UniProt Q9NQC7); test: In vitro assay of Cyld activity; assay type: biochemical
T1 sequence (Q9NQC7 1-956): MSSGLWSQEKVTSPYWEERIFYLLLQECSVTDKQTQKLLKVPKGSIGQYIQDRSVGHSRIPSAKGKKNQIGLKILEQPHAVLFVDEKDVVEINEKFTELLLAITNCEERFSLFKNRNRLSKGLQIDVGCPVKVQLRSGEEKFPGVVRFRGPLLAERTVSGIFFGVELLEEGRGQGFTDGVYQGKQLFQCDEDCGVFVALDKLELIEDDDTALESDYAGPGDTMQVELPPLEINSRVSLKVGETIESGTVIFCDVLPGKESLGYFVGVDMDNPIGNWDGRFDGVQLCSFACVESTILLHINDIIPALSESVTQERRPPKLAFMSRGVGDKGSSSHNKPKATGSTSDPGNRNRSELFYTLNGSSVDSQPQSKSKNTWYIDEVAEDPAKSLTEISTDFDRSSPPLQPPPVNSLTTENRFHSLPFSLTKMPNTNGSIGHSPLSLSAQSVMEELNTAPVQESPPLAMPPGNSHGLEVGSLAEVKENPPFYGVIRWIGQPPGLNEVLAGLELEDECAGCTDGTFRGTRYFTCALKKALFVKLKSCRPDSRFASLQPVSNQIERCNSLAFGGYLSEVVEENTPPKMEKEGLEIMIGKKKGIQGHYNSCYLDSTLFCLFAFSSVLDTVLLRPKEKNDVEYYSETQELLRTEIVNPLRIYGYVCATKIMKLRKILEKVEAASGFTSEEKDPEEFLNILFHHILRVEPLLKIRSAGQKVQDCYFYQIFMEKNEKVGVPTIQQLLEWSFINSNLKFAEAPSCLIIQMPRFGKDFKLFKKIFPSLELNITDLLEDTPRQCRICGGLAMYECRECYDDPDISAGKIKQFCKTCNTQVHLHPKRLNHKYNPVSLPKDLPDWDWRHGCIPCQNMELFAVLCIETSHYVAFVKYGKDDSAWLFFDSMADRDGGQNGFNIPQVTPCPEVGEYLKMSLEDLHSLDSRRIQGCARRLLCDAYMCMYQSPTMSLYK

[6] = test system: TLR ligands; test: Mechanistic studies: responses to TLR ligands; assay type: cell-based; conditions: TLR ligands including neoseptin-3
[7] = target: T2, TLR4 (Mus musculus, UniProt Q9JHF9+Q9QUK6); test: TLR4 agonist activity, stimulated TNF-alpha release in mouse macrophages; assay type: cell-based; conditions: for TLR4 agonist efficacy: relative to neoseptin-1 or LPS
T2 construct: measuring the stimulated TNF-alpha release in mouse macrophages; endogenous in cells; host or cells: mouse macrophages
T2 sequence (Q9QUK6 26-835): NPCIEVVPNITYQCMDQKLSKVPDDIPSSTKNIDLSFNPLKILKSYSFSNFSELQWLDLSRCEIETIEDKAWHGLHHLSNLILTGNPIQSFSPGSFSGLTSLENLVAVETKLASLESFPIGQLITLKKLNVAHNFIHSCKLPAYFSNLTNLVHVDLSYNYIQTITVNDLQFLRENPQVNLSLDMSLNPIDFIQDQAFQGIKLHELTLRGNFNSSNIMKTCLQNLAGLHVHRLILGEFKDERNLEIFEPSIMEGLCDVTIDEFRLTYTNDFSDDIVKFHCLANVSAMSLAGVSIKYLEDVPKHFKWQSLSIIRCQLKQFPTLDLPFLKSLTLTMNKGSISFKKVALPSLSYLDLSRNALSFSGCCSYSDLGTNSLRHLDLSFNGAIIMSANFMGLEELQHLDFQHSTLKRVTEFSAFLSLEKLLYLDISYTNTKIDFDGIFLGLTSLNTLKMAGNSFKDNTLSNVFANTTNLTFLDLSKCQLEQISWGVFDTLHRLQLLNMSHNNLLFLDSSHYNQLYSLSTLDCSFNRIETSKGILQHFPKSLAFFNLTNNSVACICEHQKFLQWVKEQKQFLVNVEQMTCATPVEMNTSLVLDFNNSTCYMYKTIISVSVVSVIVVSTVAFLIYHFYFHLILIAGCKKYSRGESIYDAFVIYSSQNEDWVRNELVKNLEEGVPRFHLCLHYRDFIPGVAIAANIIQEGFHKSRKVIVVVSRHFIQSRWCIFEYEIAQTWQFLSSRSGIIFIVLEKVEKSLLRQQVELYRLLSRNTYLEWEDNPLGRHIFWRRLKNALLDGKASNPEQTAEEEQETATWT
T2 sequence (Q9JHF9 19-160): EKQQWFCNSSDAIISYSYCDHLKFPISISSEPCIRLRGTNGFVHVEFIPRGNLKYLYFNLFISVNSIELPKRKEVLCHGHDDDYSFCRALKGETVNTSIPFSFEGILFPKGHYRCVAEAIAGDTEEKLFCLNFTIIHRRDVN
Description: In efforts to improve the TLR4 agonist activity of an initial screening lead, neoseptin-1 (below), measuring the stimulated TNF-alpha release in mouse macrophages, Compound 125-03, used herein as illustrative of the contemplated compounds, emerged as a key compound capable of stimulating the immune response (below). […] [TLRs […] have been lost from the mouse genome, and TLRs 11, 12 and 13 have been lost from the human genome. Beutler, Blood, 113:1399-1407 (2009).]

Row | effect on Cyld activity [5] | TLR4 agonism [7] | SMILES | overt toxicity [1] | TLR dependence of stimulated TNF-alpha production ([2]; macrophages from mice with disabling mutations or knockouts of TLR genes, FIG. 1) | stimulating the release of TNF-alpha in mouse macrophages ([2]; mouse macrophages) | release of TNF-alpha from differentiated human THP-1 cells [3] | adjuvant activity, serum OVA-specific IgG ([4]; OVA 100 μg, intramuscular, booster at 7 days, day 35 post-immunization, FIG. 3) | adjuvant activity compared with alum ([4]; anti-ovalbumin titers, 14 days post immunization, concentrations used, FIG. 4) | effect on responses to TLR ligands [6] | TLR4 agonist efficacy [7] | concentration needed for an antibody response similar to Compound 125-03 ([4]; at fourteen days)
1 | directly inhibits Cyld activity | – | O=C(NCCCc1ccccc1)c1ccc(NC(=O)c2cc3ccccc3o2)c(OCCc2ccc(O)cc2)c1 [Compound 125-03, N-(2-(4-Hydroxyphenethoxy)-4-((3-phenylpropyl)-carbamoyl)phenyl)benzofuran-2-carboxamide] | did not display the overt toxicity | independent of the TLRs including TLR4/MD-2 | active | dose dependent activity | robust, dose-dependent adjuvant activity | more effective than alum | markedly increased responses to TLR ligands | – | –
2 | – | – | N[C@@H](Cc1ccccc1)C(=O)Nc1ccc(C(=O)N[C@@H](CCc2ccccc2)C(=O)O)cc1CCc1ccc(O)cc1 [MM-1-88] | – | – | – | – | – | – | – | significant enhancement in TLR4 agonist efficacy | –
3 | – | TLR4-agonist | CC(C)(C)OC(=O)[C@H](CCc1ccccc1)NC(=O)c1ccc(N)c(CCc2ccc(O)cc2)c1 [neoseptin-3, reference compound] | – | – | – | not active in human cells | – | – | – | nearly matching the efficacy of LPS | about twice the concentration
